Measured values taken from patent publication US12522583B2, “Benzimidazole derivatives and aza-benzimidazole derivatives as Janus kinase 2 inhibitors and uses thereof” (Dana-Farber Cancer Institute, Inc., priority 2018, dated 2026).

Experiments:
Experiment in all cases: KINOMEscan
Format in all cases: binding
Conditions in all cases: read-out: percent control
[1] = molecular target: ABL1(F317L)-nonphosphorylated (Homo sapiens (Human), UniProt P00519, F317L)
Description: (§1) Example 2. In Vitro Kinase Selectivity Profiling of the Compounds of the Present Disclosure

PRKX = PRKX (Homo sapiens (Human), UniProt P51817)
Sequence of PRKX (P51817 whole entry): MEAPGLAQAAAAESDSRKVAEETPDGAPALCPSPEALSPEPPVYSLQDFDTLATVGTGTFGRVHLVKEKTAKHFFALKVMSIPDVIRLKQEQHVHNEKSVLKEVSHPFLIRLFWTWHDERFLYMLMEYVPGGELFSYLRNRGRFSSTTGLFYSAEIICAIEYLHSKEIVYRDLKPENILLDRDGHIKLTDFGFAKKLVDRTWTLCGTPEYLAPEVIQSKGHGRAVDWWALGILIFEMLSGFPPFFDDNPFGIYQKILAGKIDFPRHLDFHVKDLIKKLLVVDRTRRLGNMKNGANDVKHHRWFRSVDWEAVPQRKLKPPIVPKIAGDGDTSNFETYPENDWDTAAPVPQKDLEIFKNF
Description: as §1

MYO3B = MYO3B (Homo sapiens (Human), UniProt Q8WXR4)
Description: as §1

PRKCQ = PRKCQ (Homo sapiens (Human), UniProt Q04759)
Sequence of PRKCQ (Q04759 whole entry): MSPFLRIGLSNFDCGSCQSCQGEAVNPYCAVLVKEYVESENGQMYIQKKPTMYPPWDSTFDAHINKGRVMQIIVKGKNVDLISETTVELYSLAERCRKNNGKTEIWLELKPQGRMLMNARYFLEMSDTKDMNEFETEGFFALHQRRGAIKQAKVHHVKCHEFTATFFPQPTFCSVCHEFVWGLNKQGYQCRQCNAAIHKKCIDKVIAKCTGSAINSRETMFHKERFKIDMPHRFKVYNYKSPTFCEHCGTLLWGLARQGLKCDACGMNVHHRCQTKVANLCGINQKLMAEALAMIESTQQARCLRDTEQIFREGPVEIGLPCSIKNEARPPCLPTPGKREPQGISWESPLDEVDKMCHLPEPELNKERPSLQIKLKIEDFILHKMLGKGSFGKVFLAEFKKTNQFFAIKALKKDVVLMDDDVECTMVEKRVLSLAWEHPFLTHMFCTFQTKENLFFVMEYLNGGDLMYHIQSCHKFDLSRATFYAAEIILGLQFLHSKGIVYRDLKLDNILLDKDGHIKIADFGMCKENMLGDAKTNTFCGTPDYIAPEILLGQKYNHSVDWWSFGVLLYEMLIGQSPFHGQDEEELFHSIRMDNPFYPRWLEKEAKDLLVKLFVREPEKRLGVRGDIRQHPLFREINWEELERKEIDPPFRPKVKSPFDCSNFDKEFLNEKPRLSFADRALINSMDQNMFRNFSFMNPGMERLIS
Description: as §1

[2] = molecular target: JAK3(JH1domain-catalytic) (Homo sapiens (Human), UniProt P52333)
Description: as §1

NIM1 = NIM1 (Homo sapiens (Human), UniProt Q8IY84)
Sequence of NIM1 (Q8IY84 whole entry): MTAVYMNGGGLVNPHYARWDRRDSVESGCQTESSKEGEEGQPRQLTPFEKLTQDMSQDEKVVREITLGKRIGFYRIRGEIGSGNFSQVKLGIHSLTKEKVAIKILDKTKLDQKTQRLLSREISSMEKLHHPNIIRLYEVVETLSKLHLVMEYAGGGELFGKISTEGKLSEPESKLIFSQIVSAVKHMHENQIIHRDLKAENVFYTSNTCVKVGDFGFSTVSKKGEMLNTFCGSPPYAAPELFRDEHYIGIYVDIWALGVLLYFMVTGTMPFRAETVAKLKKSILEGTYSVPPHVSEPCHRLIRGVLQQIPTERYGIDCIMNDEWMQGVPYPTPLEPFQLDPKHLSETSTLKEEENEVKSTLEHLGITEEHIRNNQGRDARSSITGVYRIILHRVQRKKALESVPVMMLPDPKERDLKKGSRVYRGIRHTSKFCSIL
Description: as §1

[3] = molecular target: TYK2(JH1domain-catalytic) (Homo sapiens (Human), UniProt P29597)
Description: as §1

WEE2 = WEE2 (Homo sapiens (Human), UniProt P0C1S8)
Sequence of WEE2 (P0C1S8 whole entry): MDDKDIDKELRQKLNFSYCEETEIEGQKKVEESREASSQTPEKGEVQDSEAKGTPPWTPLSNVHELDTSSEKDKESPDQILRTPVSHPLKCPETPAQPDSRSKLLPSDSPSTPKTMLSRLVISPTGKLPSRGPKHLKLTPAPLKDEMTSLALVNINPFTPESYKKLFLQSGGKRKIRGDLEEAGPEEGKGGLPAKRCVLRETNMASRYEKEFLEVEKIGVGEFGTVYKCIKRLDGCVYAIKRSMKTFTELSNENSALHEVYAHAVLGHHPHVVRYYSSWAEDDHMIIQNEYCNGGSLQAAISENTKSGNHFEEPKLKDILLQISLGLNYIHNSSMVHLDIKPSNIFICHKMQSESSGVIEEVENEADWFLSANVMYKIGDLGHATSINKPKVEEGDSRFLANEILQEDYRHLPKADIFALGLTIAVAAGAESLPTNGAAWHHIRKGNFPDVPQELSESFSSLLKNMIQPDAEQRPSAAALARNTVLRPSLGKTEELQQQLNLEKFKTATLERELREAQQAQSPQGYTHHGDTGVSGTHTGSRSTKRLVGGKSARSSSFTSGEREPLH
Description: as §1

GRK2 = GRK2 (Homo sapiens (Human), UniProt P25098)
Description: as §1

GRK4 = GRK4 (Homo sapiens (Human), UniProt P32298)
Description: as §1

CTK = CTK (Homo sapiens (Human), UniProt P42679)
Description: as §1

NDR2 = NDR2 (Homo sapiens (Human), UniProt Q9Y2H1)
Description: as §1

MAP4K5 = MAP4K5 (Homo sapiens (Human), UniProt Q9Y4K4)
Description: as §1

MYLK2 = MYLK2 (Homo sapiens (Human), UniProt Q9H1R3)
Description: as §1

CDK4-cyclinD1 = CDK4-cyclinD1 (Homo sapiens (Human), UniProt P11802)
Description: as §1

EPHB2 = EPHB2 (Homo sapiens (Human), UniProt P29323)
Description: as §1

EPHB4 = EPHB4 (Homo sapiens (Human), UniProt P54760)
Description: as §1

FLT3(D835H) = FLT3(D835H) (Homo sapiens (Human), UniProt P36888, D835H)
Description: as §1

PCTK2 = PCTK2 (Homo sapiens (Human), UniProt Q00537)
Description: as §1

KIT(A829P) = KIT(A829P) (Homo sapiens (Human), UniProt P10721, A829P)
Description: as §1

MST2 = MST2 (Homo sapiens (Human), UniProt Q13188)
Description: as §1

ACVR1B = ACVR1B (Homo sapiens (Human), UniProt P36896)
Description: as §1

STK36 = STK36 (Homo sapiens (Human), UniProt Q9NRP7)
Description: as §1

EPHB6 = EPHB6 (Homo sapiens (Human), UniProt O15197)
Description: as §1

CSNK2A1 = CSNK2A1 (Homo sapiens (Human), UniProt P68400)
Sequence of CSNK2A1 (P68400 whole entry): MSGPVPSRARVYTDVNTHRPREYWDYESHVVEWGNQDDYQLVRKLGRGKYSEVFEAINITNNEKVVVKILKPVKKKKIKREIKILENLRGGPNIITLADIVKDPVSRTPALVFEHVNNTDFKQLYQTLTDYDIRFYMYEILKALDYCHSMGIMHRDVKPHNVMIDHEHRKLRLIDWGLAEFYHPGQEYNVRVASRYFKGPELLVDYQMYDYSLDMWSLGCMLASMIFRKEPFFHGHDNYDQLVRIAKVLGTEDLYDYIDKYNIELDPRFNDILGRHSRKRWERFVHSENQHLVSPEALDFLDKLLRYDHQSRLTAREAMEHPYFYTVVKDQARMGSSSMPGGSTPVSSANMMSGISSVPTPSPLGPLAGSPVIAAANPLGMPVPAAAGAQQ
Description: as §1

RIOK2 = RIOK2 (Homo sapiens (Human), UniProt Q9BVS4)
Description: as §1

AXL = AXL (Homo sapiens (Human), UniProt P30530)
Description: as §1

TBK1 = TBK1 (Homo sapiens (Human), UniProt Q9UHD2)
Description: as §1

MYLK = MYLK (Homo sapiens (Human), UniProt Q15746)
Description: as §1

DDR2 = DDR2 (Homo sapiens (Human), UniProt Q16832)
Description: as §1

PIM2 = PIM2 (Homo sapiens (Human), UniProt Q9P1W9)
Description: as §1

CDK2 = CDK2 (Homo sapiens (Human), UniProt P24941)
Description: as §1

CAMK1 = CAMK1 (Homo sapiens (Human), UniProt Q14012)
Sequence of CAMK1 (Q14012 whole entry): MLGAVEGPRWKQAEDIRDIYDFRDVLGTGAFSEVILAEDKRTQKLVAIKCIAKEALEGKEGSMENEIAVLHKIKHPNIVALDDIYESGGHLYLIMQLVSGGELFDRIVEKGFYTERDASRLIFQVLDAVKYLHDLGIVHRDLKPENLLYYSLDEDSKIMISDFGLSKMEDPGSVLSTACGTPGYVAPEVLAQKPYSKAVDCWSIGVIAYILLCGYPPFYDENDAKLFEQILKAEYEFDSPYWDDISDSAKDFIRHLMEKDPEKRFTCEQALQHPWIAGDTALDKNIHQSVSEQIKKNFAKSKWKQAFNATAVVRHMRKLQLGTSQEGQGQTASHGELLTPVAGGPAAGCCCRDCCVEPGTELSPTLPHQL
Description: as §1

DMPK = DMPK (Homo sapiens (Human), UniProt Q09013)
Sequence of DMPK (Q09013 whole entry): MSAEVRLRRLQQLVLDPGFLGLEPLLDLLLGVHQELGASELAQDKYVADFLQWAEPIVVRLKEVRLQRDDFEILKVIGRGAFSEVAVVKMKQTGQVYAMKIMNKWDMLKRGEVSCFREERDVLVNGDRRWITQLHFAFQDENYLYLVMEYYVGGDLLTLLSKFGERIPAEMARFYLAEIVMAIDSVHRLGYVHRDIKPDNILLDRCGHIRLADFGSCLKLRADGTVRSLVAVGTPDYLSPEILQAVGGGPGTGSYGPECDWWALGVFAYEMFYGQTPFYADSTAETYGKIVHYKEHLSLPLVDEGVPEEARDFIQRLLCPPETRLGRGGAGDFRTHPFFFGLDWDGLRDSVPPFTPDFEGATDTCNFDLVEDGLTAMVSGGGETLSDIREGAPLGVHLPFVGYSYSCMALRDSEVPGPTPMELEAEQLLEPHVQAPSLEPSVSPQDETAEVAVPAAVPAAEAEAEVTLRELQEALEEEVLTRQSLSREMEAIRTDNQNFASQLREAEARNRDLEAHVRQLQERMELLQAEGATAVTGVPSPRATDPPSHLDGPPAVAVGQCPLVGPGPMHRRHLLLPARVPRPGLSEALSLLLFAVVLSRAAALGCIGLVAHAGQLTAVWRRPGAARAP
Description: as §1

CSK = CSK (Homo sapiens (Human), UniProt P41240)
Sequence of CSK (P41240 whole entry): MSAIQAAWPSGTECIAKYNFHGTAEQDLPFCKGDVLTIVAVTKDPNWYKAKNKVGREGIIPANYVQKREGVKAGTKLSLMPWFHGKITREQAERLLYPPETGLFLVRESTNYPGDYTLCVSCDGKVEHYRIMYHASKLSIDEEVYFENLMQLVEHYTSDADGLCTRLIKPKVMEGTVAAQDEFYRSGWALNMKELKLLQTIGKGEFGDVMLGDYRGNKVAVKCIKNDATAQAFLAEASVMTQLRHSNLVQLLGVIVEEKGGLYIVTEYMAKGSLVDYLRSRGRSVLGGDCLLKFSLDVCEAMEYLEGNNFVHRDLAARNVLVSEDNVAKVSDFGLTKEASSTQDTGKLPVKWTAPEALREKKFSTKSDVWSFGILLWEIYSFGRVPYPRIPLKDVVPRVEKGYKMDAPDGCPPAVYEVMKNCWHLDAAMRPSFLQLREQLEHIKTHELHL
Description: as §1

PAK2 = PAK2 (Homo sapiens (Human), UniProt Q13177)
Sequence of PAK2 (Q13177 whole entry): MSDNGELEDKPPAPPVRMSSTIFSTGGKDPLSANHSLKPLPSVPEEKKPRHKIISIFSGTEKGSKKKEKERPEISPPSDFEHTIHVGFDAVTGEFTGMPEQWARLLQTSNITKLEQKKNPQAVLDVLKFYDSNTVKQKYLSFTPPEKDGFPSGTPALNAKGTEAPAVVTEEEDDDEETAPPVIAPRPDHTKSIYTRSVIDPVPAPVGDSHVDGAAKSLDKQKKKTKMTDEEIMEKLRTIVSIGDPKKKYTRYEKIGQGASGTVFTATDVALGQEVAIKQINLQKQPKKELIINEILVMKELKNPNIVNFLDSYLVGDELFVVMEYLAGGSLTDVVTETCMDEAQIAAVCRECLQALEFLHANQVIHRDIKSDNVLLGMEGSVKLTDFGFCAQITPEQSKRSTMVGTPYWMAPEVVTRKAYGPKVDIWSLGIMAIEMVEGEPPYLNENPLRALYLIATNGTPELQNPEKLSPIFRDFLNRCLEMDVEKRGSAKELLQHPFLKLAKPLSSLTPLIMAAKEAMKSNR
Description: as §1

PFCDPK1(P.falciparum) = PFCDPK1(P.falciparum) (Plasmodium falciparum (isolate 3D7), UniProt P62344)
Description: as §1

AURKC = AURKC (Homo sapiens (Human), UniProt Q9UQB9)
Sequence of AURKC (Q9UQB9 whole entry): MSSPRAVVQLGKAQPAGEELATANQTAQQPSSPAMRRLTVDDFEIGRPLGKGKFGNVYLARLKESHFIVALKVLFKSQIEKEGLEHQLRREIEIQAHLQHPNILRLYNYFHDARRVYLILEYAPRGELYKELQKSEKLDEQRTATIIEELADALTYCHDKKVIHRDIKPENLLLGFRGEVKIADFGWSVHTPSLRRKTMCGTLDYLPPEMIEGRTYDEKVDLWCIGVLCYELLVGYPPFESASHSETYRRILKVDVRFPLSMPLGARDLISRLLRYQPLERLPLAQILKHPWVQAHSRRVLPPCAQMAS
Description: as §1

TIE2 = TIE2 (Homo sapiens (Human), UniProt Q02763)
Description: as §1

RAF1 = RAF1 (Homo sapiens (Human), UniProt P04049)
Description: as §1

LCK = LCK (Homo sapiens (Human), UniProt P06239)
Description: as §1

CCN1CCN(Cc2ccc(Nc3nc4ccc(Oc5ccnc(NC(C)=O)c5)c(C)c4n3C)cc2C(F)(F)F)CC1 [Compound I-6, N-(4-(2-(4-((4-ethylpiperazin-1-yl)methyl)-3-(trifluoromethyl)phenylamino)-1,7-dimethyl-1H-benzo[d]imidazol-6-yloxy)pyridin-2-yl)acetamide]
remaining binding at 1 µM [1]: 3.2% | remaining binding at 1 µM (PRKX): 100% | remaining binding at 1 µM (MYO3B): 89% | remaining binding at 1 µM (PRKCQ): 97% | remaining binding at 1 µM [2]: 72% | remaining binding at 1 µM (NIM1): 93% | remaining binding at 1 µM [3]: 36% | remaining binding at 1 µM (WEE2): 100% | remaining binding at 1 µM (GRK2): 91% | remaining binding at 1 µM (GRK4): 81% | remaining binding at 1 µM (CTK): 90% | remaining binding at 1 µM (NDR2): 97% | remaining binding at 1 µM (MAP4K5): 88% | remaining binding at 1 µM (MYLK2): 92% | remaining binding at 1 µM (CDK4-cyclinD1): 83% | remaining binding at 1 µM (EPHB2): 100% | remaining binding at 1 µM (EPHB4): 90% | remaining binding at 1 µM (FLT3(D835H)): 24% | remaining binding at 1 µM (PCTK2): 35% | remaining binding at 1 µM (KIT(A829P)): 0% | remaining binding at 1 µM (MST2): 58% | remaining binding at 1 µM (ACVR1B): 94% | remaining binding at 1 µM (STK36): 92% | remaining binding at 1 µM (EPHB6): 95% | remaining binding at 1 µM (CSNK2A1): 91% | remaining binding at 1 µM (RIOK2): 96% | remaining binding at 1 µM (AXL): 61% | remaining binding at 1 µM (TBK1): 100% | remaining binding at 1 µM (MYLK): 91% | remaining binding at 1 µM (DDR2): 0% | remaining binding at 1 µM (PIM2): 92% | remaining binding at 1 µM (CDK2): 86% | remaining binding at 1 µM (CAMK1): 93% | remaining binding at 1 µM (DMPK): 100% | remaining binding at 1 µM (CSK): 87% | remaining binding at 1 µM (PAK2): 98% | remaining binding at 1 µM (PFCDPK1(P.falciparum)): 65% | remaining binding at 1 µM (AURKC): 70% | remaining binding at 1 µM (TIE2): 36% | remaining binding at 1 µM (RAF1): 16% | remaining binding at 1 µM (LCK): 1.6%

CCN1CCN(Cc2ccc(Nc3nc4ccc(Oc5ccnc(NC(C)=O)c5)cc4n3C)cc2C(F)(F)F)CC1 [Compound I-2]
remaining binding at 1 µM [1]: 9% | remaining binding at 1 µM (PRKX): 100% | remaining binding at 1 µM (MYO3B): 87% | remaining binding at 1 µM (PRKCQ): 67% | remaining binding at 1 µM [2]: 84% | remaining binding at 1 µM (NIM1): 97% | remaining binding at 1 µM [3]: 23% | remaining binding at 1 µM (WEE2): 100% | remaining binding at 1 µM (GRK2): 100% | remaining binding at 1 µM (GRK4): 99% | remaining binding at 1 µM (CTK): 83% | remaining binding at 1 µM (NDR2): 62% | remaining binding at 1 µM (MAP4K5): 89% | remaining binding at 1 µM (MYLK2): 100% | remaining binding at 1 µM (CDK4-cyclinD1): 85% | remaining binding at 1 µM (EPHB2): 81% | remaining binding at 1 µM (EPHB4): 100% | remaining binding at 1 µM (FLT3(D835H)): 47% | remaining binding at 1 µM (PCTK2): 91% | remaining binding at 1 µM (KIT(A829P)): 0% | remaining binding at 1 µM (MST2): 81% | remaining binding at 1 µM (ACVR1B): 100% | remaining binding at 1 µM (STK36): 79% | remaining binding at 1 µM (EPHB6): 72% | remaining binding at 1 µM (CSNK2A1): 66% | remaining binding at 1 µM (RIOK2): 51% | remaining binding at 1 µM (AXL): 86% | remaining binding at 1 µM (TBK1): 73% | remaining binding at 1 µM (MYLK): 59% | remaining binding at 1 µM (DDR2): 0% | remaining binding at 1 µM (PIM2): 91% | remaining binding at 1 µM (CDK2): 100% | remaining binding at 1 µM (CAMK1): 83% | remaining binding at 1 µM (DMPK): 94% | remaining binding at 1 µM (CSK): 63% | remaining binding at 1 µM (PAK2): 97% | remaining binding at 1 µM (PFCDPK1(P.falciparum)): 77% | remaining binding at 1 µM (AURKC): 19% | remaining binding at 1 µM (TIE2): 81% | remaining binding at 1 µM (RAF1): 14% | remaining binding at 1 µM (LCK): 18%
